Experimental findings from patent publication US20140286903A1, “Substituted Purine Nucleosides, Phosphoramidate and Phosphordiamidate Derivatives for Treatment if Viral Infections” (INHIBITEX, INC., priority 2011, published 2014) are described below.

A word on the CC50: it is the concentration at which the toxic effect on the cells reaches its halfway point. Higher therefore signals lower toxicity to the cells. What is called IC50 is the concentration at which inhibition is half-maximal. Low values mean greater potency in that assay, high ones weaker potency in that assay.

Data set [1] can be described thus: Cytotoxicity assay (CellTiter-Glo). Format: cell-based. Particulars: human, 72 h incubation, concentration resulting in 50% luminescent signal. On the procedure:
(§1) Further to the above Examples, representative compounds, prepared according to the examples were tested for potency in an HCV replicon assay (Genotype 1b) for activity against the virus (EC50) and toxicity to the cells (CC50).
(§2) Huh7 Replicon Cell Lines and Cell Culture Conditions: A luciferase-reporter genotype 1b subgenomic replicon cell line, and a genotype 1a full-length replicon cell line were obtained from Apath, LLC, Brooklyn, N.Y.: All cell lines were passaged twice a week by splitting 4 or 6 fold. Cells were maintained in DMEM-high glucose medium (HyClone, Logan, Utah) supplemented with 9% FBS (HyClone), 2 mM glutamine (Invitrogen, Carlsbad, Calif.), 100 U/mL PenStrep (Invitrogen). Media also contained 0.25 mg/mL of the antibiotic G-418 to maintain stable expression of the replicon (Invitrogen). Incubation was performed at 37° C. in 5% CO2 atmosphere. Replicon cell lines were used until they accumulated 15-to-18 passages, after which cells were restarted from the frozen stock. Seeding cell counts were routinely determined using an automatic Cedex HiRes cell counter (Flownomics Analytical Instruments, Madison, Wis.) or manually using INCYTO C-Chip™ Disposable Hemacytometers (Fisher Scientific, Pittsburg, Pa.).
Cytotoxicity Assay. Cells were seeded into 96-well plates at a density of 2×10^4 cells per well. 24 h after cell plating, 11 serial 2× compound dilutions, starting with 100 µM, were applied to the testing plates (3 repeats per compound dilution). Each testing plate was run with a “no-compound” control. Incubation with compounds was continued at 37° C. in a CO2 incubator for 72 h. To determine cell viability, the CellTiter-Glo® assay (Promega, Madison, Wis.) was performed according to the manufacturer's protocol. The compound concentration resulting in 50% luminescent signal was reported as the CC50 concentration.
In general terms: ATP-based viability assays read luminescence as a measure of living cells.

Data set [2] has as its system HCV replicon (Genotype 1b). In words: Luciferase genotype 1b replicon potency assay. Format: cell-based, hepatitis C virus. Particulars: Renilla luciferase reporter activity, 50% decrease vs untreated cells. On the procedure: as §1, §2
Luciferase Genotype 1b Replicon Potency Assay. Replicon cells were seeded into white 96-well plates (Nunc/VWR) at a density of 2×10^4 cells/well in medium without G-418. A Stacker Multidrop Liquid Dispenser (MTX Lab Systems, Vienna, Va.) was employed to ensure uniform and fast cell seeding into multiple plates. 18-24 h after cell plating, inhibitors were added and cells were incubated for additional 24, 48, or 72 h (as indicated). Compounds were tested in triplicates and quadruplicates at 3× or 4× serial dilutions over a range of 0.0001-to-10 μM concentrations. HCV replication was monitored by Renilla luciferase reporter activity assay using Renilla luciferase reporter (Promega, Madison, Wis.) and a Veritas Luminometer (Turner Biosystems, Sunnyvale, Calif.). 50% and 90% inhibitory concentration (IC50 and IC90) values were calculated as the concentration of compound that results correspondingly in 50% and 90% decreases in the reporter expression as compared to untreated cells. The values were determined by non-linear regression (four-parameter sigmoidal curve fitting) analysis.
In general terms: In antiviral work, replicon cells carry a viral genome segment that copies itself.

[3] abbreviates: Huh7 HCV replicon cells (genotype 1b).
Setting [4] is: Hepatitis C virus, Huh-7, Huh7 luciferase-reporter genotype 1b subgenomic replicon cells.

Bounds are passed on as bounds.

`COc1nc(N)nc2c1ncn2[C@@H]1O[C@H](CO)[C@@H](F)[C@@]1(C)O` [Example 2, (2R,3S,4R,5R)-2-(2-amino-6-methoxy-9H-purin-9-yl)-4-fluoro-5-(hydroxymethyl)-3-methyltetrahydrofuran-3-ol]: in data set [1] (setting [3]), the CC50 at 72 h is above 100 µM. In addition, in data set [2] (setting [4]), the half-maximal inhibitory concentration (IC50) is above 100 µM.
Regarding `C[C@@]1(O)[C@H](F)[C@@H](CO)O[C@H]1n1cnc2c(=O)[nH]c(N)nc21` [Example 3, 2-amino-9-((2R,3S,4R,5R)-4-fluoro-3-hydroxy-5-(hydroxymethyl)-3-methyltetrahydrofuran-2-yl)-1H-purin-6(9H)-one], the cytotoxic concentration (CC50) at 72 h in data set [1] (setting [3]) is above 100 µM. The compound also gave an IC50 in data set [2] (setting [4]) above 100 µM.
On to `COc1nc(N)nc2c1ncn2[C@H]1O[C@H](CO)[C@@H](F)[C@]1(C)O` [Example 4, (2S,3R,4R,5R)-2-(2-Amino-6-methoxy-9H-purin-9-yl)-4-fluoro-5-(hydroxymethyl)-3-methyltetrahydrofuran-3-ol], for which, in data set [1] (setting [3]), the CC50 at 72 h was above 100 µM. The IC50 in data set [2] (setting [4]) is above 100 µM.
For `C[C@]1(O)[C@H](F)[C@@H](CO)O[C@@H]1n1cnc2c(Cl)nc(N)nc21` [Example 5, (2S,3R,4R,5R)-2-(2-amino-6-chloro-9H-purin-9-yl)-4-fluoro-5-(hydroxymethyl)-3-methyltetrahydrofuran-3-ol], the CC50 at 72 h in data set [1] (setting [3]) was above 100 µM. In data set [2] (setting [4]), the IC50 was above 100 µM.
Compound `CCOc1nc(N)nc2c1ncn2[C@@H]1O[C@H](CO)[C@@H](F)[C@@]1(C)O` [Example 6, (2R,3S,4R,5R)-2-(2-amino-6-ethoxy-9H-purin-9-yl)-4-fluoro-5-(hydroxymethyl)-3-methyltetrahydrofuran-3-ol] returned a 50% cytotoxic concentration (CC50) at 72 h in data set [1] (setting [3]) above 100 µM. Also, the 50% inhibitory concentration (IC50) in data set [2] (setting [4]) was above 100 µM.
In data set [1] (setting [3]), `C[C@@]1(O)[C@H](F)[C@@H](CO)O[C@H]1n1cnc2c(N3CCC3)nc(N)nc21` [Example 7, (2R,3S,4R,5R)-2-(2-Amino-6-(azetidin-1-yl)-9H-purin-9-yl)-4-fluoro-5-(hydroxymethyl)-3-methyltetrahydrofuran-3-ol] returned a CC50 at 72 h above 100 µM. Besides, the IC50 is 24 µM in data set [2] (setting [4]) and above 40 µM in data set [2] (Huh7 luciferase-reporter genotype 1b subgenomic replicon cells).
`C[C@@]1(O)[C@H](F)[C@@H](CO)O[C@H]1n1cnc2c(N)ncnc21` [Example 8, (2R,3S,4R,5R)-2-(6-Amino-9H-purin-9-yl)-4-fluoro-5-(hydroxymethyl)-3-methyltetrahydrofuran-3-ol] came in with a CC50 at 72 h in data set [1] (setting [3]) above 100 µM. In data set [2] (setting [4]), this compound gave an IC50 above 100 µM.
Turning to `C[C@@]1(O)[C@H](F)[C@@H](CO)O[C@H]1n1ccc(N)nc1=O` [Example 9, 4-Amino-1-((2R,3S,4R,5R)-4-fluoro-3-hydroxy-5-(hydroxymethyl)-3-methyltetrahydrofuran-2-yl)pyrimidin-2(1H)-one], the half-maximal cytotoxic concentration (CC50) at 72 h in data set [1] (setting [3]) is above 100 µM. The IC50 in data set [2] (setting [4]) is above 100 µM.
For `C[C@@]1(O)[C@H](F)[C@@H](CO)O[C@H]1n1ccc(=O)[nH]c1=O` [Example 10, 1-((2R,3S,4R,5R)-4-Fluoro-3-hydroxy-5-(hydroxymethyl)-3-methyltetrahydrofuran-2-yl)pyrimidine-2,4(1H,3H)-dione], the CC50 at 72 h in data set [1] (setting [3]) was above 100 µM. The compound also had a half-inhibitory concentration (IC50) in data set [2] (setting [4]) of 23 µM.
The corresponding values for `COc1nc(N)nc2c1ncn2[C@@H]1O[C@H](CO)[C@H](F)[C@@]1(C)O` [Example 11, (2R,3S,4S,5R)-2-(2-Amino-6-methoxy-9H-purin-9-yl)-4-fluoro-5-(hydroxymethyl)-3-methyltetrahydrofuran-3-ol] are above 100 µM and above 100 µM.
In data set [1], `COc1nc(N)nc2c1ncn2[C@@H]1O[C@H](COP(=O)(N[C@@H](C)C(=O)OCc2ccccc2)Oc2cccc3ccccc23)[C@@H](F)[C@@]1(C)O` (stereo partly drawn) [Example 12, (2S)-Benzyl 2-((((2R,3R,4S,5R)-5-(2-amino-6-methoxy-9H-purin-9-yl)-3-fluoro-4-hydroxy-4-methyltetrahydrofuran-2-yl)methoxy)(naphthalen-1-yloxy)phosphorylamino)propanoate] showed a CC50 at 72 h of 48 µM. The compound further yielded an IC50 in data set [2] (setting [4]) of 0.77 µM.
`COc1nc(N)nc2c1ncn2[C@@H]1O[C@H](COP(=O)(N[C@@H](C)C(=O)OCc2ccc(F)cc2F)Oc2cccc3ccccc23)[C@@H](F)[C@@]1(C)O` (stereo partly drawn) [Example 13, (2S)-2,4-Difluorobenzyl 2-((((2R,3R,4S,5R)-5-(2-amino-6-methoxy-9H-purin-9-yl)-3-fluoro-4-hydroxy-4-methyltetrahydrofuran-2-yl)methoxy)(naphthalen-1-yloxy)phosphorylamino)propanoate] showed a CC50 at 72 h in data set [1] of 68 µM. The compound further yielded a half-inhibitory concentration (IC50) in data set [2] (setting [4]) of 1 µM.
The corresponding values for `CCCCOC(=O)[C@H](C)NP(=O)(OC[C@H]1O[C@@H](n2cnc3c(OC)nc(N)nc32)[C@](C)(O)[C@@H]1F)Oc1cccc2ccccc12` (stereo partly drawn) [Example 14, (2S)-butyl 2-((((2R,3R,4S,5R)-5-(2-amino-6-methoxy-9H-purin-9-yl)-3-fluoro-4-hydroxy-4-methyltetrahydrofuran-2-yl)methoxy)(naphthalen-1-yloxy)phosphorylamino)propanoate] are 40 µM and 0.33 µM.
For `COc1nc(N)nc2c1ncn2[C@@H]1O[C@H](COP(=O)(N[C@@H](C)C(=O)OCCC(C)(C)C)Oc2cccc3ccccc23)[C@@H](F)[C@@]1(C)O` (stereo partly drawn) [Example 15, (2S)-3,3-Dimethylbutyl 2-((((2R,3R,4S,5R)-5-(2-amino-6-methoxy-9H-purin-9-yl)-3-fluoro-4-hydroxy-4-methyltetrahydrofuran-2-yl)methoxy)(naphthalen-1-yloxy)phosphorylamino)propanoate], in that order: 21 µM and 0.5 µM.
In the case of `COc1nc(N)nc2c1ncn2[C@@H]1O[C@H](COP(=O)(N[C@@H](C)C(=O)OCC(C)(C)C)Oc2cccc3ccccc23)[C@@H](F)[C@@]1(C)O` (stereo partly drawn) [Example 16, (2S)-Neopentyl 2-((((2R,3R,4S,5R)-5-(2-amino-6-methoxy-9H-purin-9-yl)-3-fluoro-4-hydroxy-4-methyltetrahydrofuran-2-yl)methoxy)(naphthalen-1-yloxy)phosphorylamino)propanoate], the cytotoxic concentration (CC50) at 72 h in data set [1] stood at 29 µM. Half-maximal inhibition in data set [2] (setting [4]) (IC50) required 0.37 µM.
As for `COc1nc(N)nc2c1ncn2[C@@H]1O[C@H](COP(=O)(N[C@@H](C)C(=O)OC2CCCC2)Oc2cccc3ccccc23)[C@@H](F)[C@@]1(C)O` (stereo partly drawn) [Example 17, (2S)-Cyclopentyl 2-((((2R,3R,4S,5R)-5-(2-amino-6-methoxy-9H-purin-9-yl)-3-fluoro-4-hydroxy-4-methyltetrahydrofuran-2-yl)methoxy)(naphthalen-1-yloxy)phosphorylamino)propanoate], the half-maximal cytotoxic concentration (CC50) at 72 h in data set [1] was 40 µM. For the same compound, the IC50 in data set [2] (setting [4]) amounted to 0.45 µM.
In turn, `COc1nc(N)nc2c1ncn2[C@@H]1O[C@H](COP(=O)(N[C@@H](C)C(=O)OC2CCCCC2)Oc2cccc3ccccc23)[C@@H](F)[C@@]1(C)O` (stereo partly drawn) [Example 18, (2S)-Cyclohexyl 2-((((2R,3R,4S,5R)-5-(2-amino-6-methoxy-9H-purin-9-yl)-3-fluoro-4-hydroxy-4-methyltetrahydrofuran-2-yl)methoxy)(naphthalen-1-yloxy)phosphorylamino)propanoate] showed a CC50 at 72 h in data set [1] of 30 µM. The same compound displayed an IC50 in data set [2] (setting [4]) of 1.3 µM.
